Test results: patent US20130345215A1, “PYRAZOLOPYRIMIDONE AND PYRAZOLOPYRIDONE INHIBITORS OF TANKYRASE” (Genentech, Inc., priority 2012, published 2013)

Legend:
[1] = biological target: T1, Tankyrase 1 (TNKS1) (Homo sapiens, UniProt O95271); assay: μHTS-TNKS-IWR2 TR-FRET Binding Assay (Example 118), His6-TNKS1
T1 construct: His6-TNKS1, MW=28.2 KDa (construct: 1088-1327, 1266M)
Procedure: (§1) μHTS-TNKS-IWR2 TR-FRET Binding Assay (10 μL/well in BD1536-well plate, a single point)
(§2) Reagents and Stock Solutions
(§3) Biotin-4-((1S,2R,6S,7R)-3,5-Dioxo-4-aza-tricyclo[5.2.1.0*2,6]dec-8-en-4-yl)-N-(4-methyl-quinolin-8-yl)-benzamide (Biotin-IWR2): 10 mM Biotin-IWR2 stock in DMSO, stored at −20° C.
(XAV939) in DMSO, stored at −20° C.
(§4) Assay buffer 1a (AB1a) for TNKS dilution: 50 mM Tris, pH 7.4, 100 mM sodium chloride solution, 1 mM magnesium chloride solution, 1 mM DL-dithiothreitol solution, 0.2 mg/mL bovine serum albumin solution, 0.025% NP-40.
(§5) Assay buffer 1b (AB1b) for Biotin-IWR2 dilution: 50 mM Tris, pH 7.4, 100 mM sodium chloride solution, 1 mM magnesium chloride solution, 1 mM DL-dithiothreitol solution, 0.2 mg/mL bovine serum albumin solution, 0.05% NP-40
(§6) Assay buffer 1c (AB1c) for compound dilution: 50 mM Tris, pH 7.4, 100 mM sodium chloride solution, 1 mM magnesium chloride solution, 1 mM DL-dithiothreitol solution, 0.2 mg/mL bovine serum albumin solution
(§7) Assay buffer 2 (AB2) for Eu/APC: 50 mM Tris, pH 7.4, 100 mM sodium chloride solution, 1 mM magnesium chloride solution, 0.2 mg/mL bovine serum albumin solution
(§8) Reagent Stock Solution Preparation
(§9) Prepare BLANK well stock solution: 5% DMSO/AB1b buffer
(§10) Prepare TNKS 1 stock solution (5× stock): 300 nM TNKS in AB1a buffer. (Alternatively, use TNKS2 or PARP1 stock solutions.)
Transfer 3 μL/well of above solution (solution 1,2,3) to an empty assay plate (BD1536-well plate) as follows: • TOTAL and cpd wells: Solution 1 (Biotin-IWR2): • BLANK wells: Solution 2 (No Biotin-IWR2): • POSITIVE CONTROL wells: Solution 3 (Biotin-IWR2+XAV939)
(§11) Transfer 3 μL/well of the above diluted compound solutions or compound dilution buffer to the above assay plate. Add 2 μL/well of 300 nM TNKS stock solution (4) to every well in the above assay plate. Centrifuge the assay plate at 2100 rpm for 2 min. Incubate the assay plate at 26° C. for 30 minutes. Add 2 μL/well 3.5 nMEu/50 nM APC solution (5) to every well in the above assay plate. Centrifuge the assay plate at 2100 rpm for 2 min. Incubate the assay plate at 26° C. for 60 min.

[2] = biological target: T2, tankyrase 2 (TNKS2) (Homo sapiens, UniProt Q9H2K2); assay: μHTS-TNKS-IWR2 TR-FRET Binding Assay (Example 118), His6-TNKS2 substituted; conditions: procedure in Example 118 with His6-TNKS2
T2 construct: His6-tankyrase 2 (construct: 934-1166) (His6-TNKS2)
Procedure: as §1, §2
Tankyrase 1 (TNKS1): 184.3 μM=5.2 mg/mL His6-TNKS1, MW=28.2 KDa (construct: 1088-1327, 1266M) in 20 mM Tris pH 8, 150 mM NaCl, 10% glycerol, and 0.5 mM TCEP. Alternatively, His6-tankyrase 2 (construct: 934-1166) (His6-TNKS2) or His6-PARP1 (full length) can be substituted for His6-TNKS 1.
as §3
Positive control: 10 mM 2-(4-Trifluoromethyl-phenyl)-3,5,7,8-tetrahydro-thiopyrano[4,3-d]pyrimidin-4-one (XAV939) in DMSO, stored at −20° C.
APC-anti-His Ab: 8.50 μM SL-APC, 8.26 μM anti-6His antibody-SureLight APC (Columia Bioscience, Catalog Number D3-1711, Lot Number N01010-AAH04)
Assay plate: BD 1536-well, clear/black plate (Catalog Number 353255)
as §4, §5, §6, §7, §8
Prepare Biotinylated IWR2 stock solution (3.33× stock) for TOTL and compound wells: 200 nM Biotin-IWR2 in 5% DMSO/AB1b buffer
as §9
Prepare POSITIVE CONTROL well stock solution (3.33× stock): 200 nM XAV939 in 200 nM Biotin-IWR2/5% DMSO/AB1b buffer
as §10
Prepare Eu/APC stock solution (5× stock): 3.5 nM Eu-SA/50 nM APC-His6Ab in AB2 buffer.
Add 25 μL/well 1.5% DMSO/AB1c buffer in each compound well to the compound concentration at 74 μM in 8.8% DMSO/AB1c buffer or in the 2 μL DMSO CONTROL wells (BLANK, TOTAL and POSITIVE wells) in the compound plate. Transfer 3 μL/well of above solution (solution 1,2,3) to an empty assay plate (BD1536-well plate) as follows: • TOTAL and cpd wells: Solution 1 (Biotin-IWR2): • BLANK wells: Solution 2 (No Biotin-IWR2): • POSITIVE CONTROL wells: Solution 3 (Biotin-IWR2+XAV939)
as §11, with “60 min. Read the assay plate immediately at excitation wavelength of 330 nm and emission wavelength of […] in time resolved fluorescence mode.” for “60 min.”
XAV939 (+ve control): 60 nM at ˜70% Inhibition
General Library compounds: 22.23 μM in 4% DMSO

T2 sequence (Q9H2K2 934-1166): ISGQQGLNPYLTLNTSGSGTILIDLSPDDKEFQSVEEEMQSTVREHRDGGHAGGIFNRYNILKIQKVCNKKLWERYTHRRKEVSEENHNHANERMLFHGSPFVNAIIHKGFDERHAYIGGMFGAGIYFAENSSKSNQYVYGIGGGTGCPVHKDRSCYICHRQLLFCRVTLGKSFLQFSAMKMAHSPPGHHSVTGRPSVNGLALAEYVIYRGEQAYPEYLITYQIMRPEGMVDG
T1 sequence (O95271 1088-1327): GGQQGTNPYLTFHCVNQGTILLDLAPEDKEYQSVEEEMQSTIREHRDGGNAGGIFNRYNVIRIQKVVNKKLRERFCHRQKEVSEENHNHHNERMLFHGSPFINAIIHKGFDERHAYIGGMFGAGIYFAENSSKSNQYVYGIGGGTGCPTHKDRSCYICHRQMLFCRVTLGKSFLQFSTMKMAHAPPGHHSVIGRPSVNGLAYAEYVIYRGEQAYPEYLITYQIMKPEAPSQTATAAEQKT

Row | Structure (SMILES) | IC50 [1] [nM] | IC50 [2] [nM]
1 | Cn1ncc2c(=O)[nH]c(N3CCN(c4ccc(F)cc4S(C)(=O)=O)CC3)nc21 [Compound I-22, 6-[4-(4-fluoro-2-methylsulfonyl-phenyl)piperazin-1-yl]-1-methyl-5H-pyrazolo[3 4-d]pyrimidin-4-one] | 44 | 55
2 | Cn1ncc2c(=O)[nH]c(N3CCN(c4c(F)cc(C#N)cc4F)CC3)nc21 [Compound I-56, 3 5-difluoro-4-[4-(1-methyl-4-oxo-5H-pyrazolo[3 4-d]pyrimidin-6-yl)piperazin-1-yl]benzonitrile] | 55 | 63.2
3 | Cn1ncc2c(=O)[nH]c(N3CCN(c4ccc(F)cc4F)CC3)nc21 [Compound I-14, 6-[4-(2 4-difluorophenyl)piperazin-1-yl]-1-methyl-5H-pyrazolo[3 4-d]pyrimidin-4-one] | 39 | 47.1
4 | Cn1ncc2c(=O)[nH]c(N3CCN(c4ccc(-c5nnn[nH]5)cc4F)CC3)nc21 [Compound I-31, 6-[4-[2-fluoro-4-(1H-tetrazol-5-yl)phenyl]piperazin-1-yl]-1-methyl-5H-pyrazolo[3 4-d]pyrimidin-4-one] | 26 | 24.6
5 | COCCOc1cc(F)cc(N2CCN(c3nc4c(cnn4C)c(=O)[nH]3)CC2)c1 [Compound I-55, 6-[4-[3-fluoro-5-(2-methoxyethoxy)phenyl]piperazin-1-yl]-1-methyl-5H-pyrazolo[3 4-d]pyrimidin-4-one] | 114 | 147
6 | Cn1ncc2c(=O)[nH]c(-c3ccc(C(F)(F)F)nc3)cc21 [Compound I-29, 1-methyl-6-[6-(trifluoromethyl)-3-pyridyl]-5H-pyrazolo[4 3-c]pyridin-4-one] | 151 | 104
7 | Cn1ncc2c(=O)[nH]c(N3CCN(c4ncccc4C(F)(F)F)CC3)nc21 [Compound I-20, 1-methyl-6-[4-[3-(trifluoromethyl)-2-pyridyl]piperazin-1-yl]-5H-pyrazolo[3 4-d]pyrimidin-4-one] | 31 | 43.2
8 | Cn1ncc2c(=O)[nH]c(-c3ccc(C(F)(F)F)cn3)nc21 [Compound I-50, 1-methyl-6-[5-(trifluoromethyl)-2-pyridyl]-5H-pyrazolo[3 4-d]pyrimidin-4-one] | 286 | 325
9 | Cn1ncc2c(=O)[nH]c(N3CCC(O)(c4ccccc4)CC3)nc21 [Compound I-23, 6-(4-hydroxy-4-phenyl-1-piperidyl)-1-methyl-5H-pyrazolo[3 4-d]pyrimidin-4-one] | 57 | 66.8
10 | Cn1ncc2c(=O)[nH]c(N3CCN(c4c(F)cc([N+](=O)[O-])cc4F)CC3)nc21 [Compound I-49, 6-[4-(2 6-difluoro-4-nitro-phenyl)piperazin-1-yl]-1-methyl-5H-pyrazolo[3 4-d]pyrimidin-4-one] | 34 | 32.6
11 | Cn1ncc2c(=O)[nH]c(N3CCN(c4c(F)cccc4F)CC3)nc21 [Compound I-2, 6-[4-(2 6-difluorophenyl)piperazin-1-yl]-1-methyl-5H-pyrazolo[3 4-d]pyrimidin-4-one] | 10.9 | 18.7
12 | Cn1ncc2c(=O)[nH]c(N3CCN(c4ccccc4C#N)CC3)nc21 [Compound I-15, 2-[4-(1-methyl-4-oxo-5H-pyrazolo[3 4-d]pyrimidin-6-yl)piperazin-1-yl]benzonitrile] | 74 | 95.2
13 | O=c1[nH]c(N2CCN(c3ccccc3F)CC2)cc2[nH]ncc12 [Compound I-12, 6-[4-(2-fluorophenyl)piperazin-1-yl]-1 5-dihydropyrazolo[4 3-c]pyridin-4-one] | 105 | 176
14 | COc1cccnc1N1CCN(c2nc3c(cnn3C)c(=O)[nH]2)CC1 [Compound I-43, 6-[4-(3-methoxy-2-pyridyl)piperazin-1-yl]-1-methyl-5H-pyrazolo[3 4-d]pyrimidin-4-one] | 47 | 55.3
15 | Cn1ncc2c(=O)[nH]c(N3CCN(c4c(Cl)cncc4Cl)CC3)nc21 [Compound I-34, 6-[4-(3 5-dichloro-4-pyridyl)piperazin-1-yl]-1-methyl-5H-pyrazolo[3 4-d]pyrimidin-4-one] | 29 | 28.9
16 | Cn1ncc2c(=O)[nH]c(N3CCN(c4ccccc4C#N)CC3)cc21 [Compound I-17, 2-[4-(1-methyl-4-oxo-5H-pyrazolo[4 3-c]pyridin-6-yl)piperazin-1-yl]benzonitrile] | 103 | 97
17 | Cn1ncc2c(=O)[nH]c(N3CCC(C#N)(c4ccccc4)CC3)nc21 [Compound I-24, 1-(1-methyl-4-oxo-5H-pyrazolo[3 4-d]pyrimidin-6-yl)-4-phenyl-piperidine-4-carbonitrile] | 27 | 33.3
18 | Cn1ncc2c(=O)[nH]c(N3CCN(CC4CCCO4)CC3)nc21 (centres unmarked) [Compound I-32, 1-methyl-6-[4-(tetrahydrofuran-2-ylmethyl)piperazin-1-yl]-5H-pyrazolo[3 4-d]pyrimidin-4-one] | 155 | 178
19 | Cn1ncc2c(=O)[nH]c(-c3ccc(C(F)(F)F)nc3)nc21 [Compound I-27, 1-methyl-6-[6-(trifluoromethyl)-3-pyridyl)-5H-pyrazolo[3 4-d]pyrimidin-4-one] | 385 | 428
20 | Cn1ncc2c(=O)[nH]c(N3CCN(c4ccc(F)cc4S(C)(=O)=O)CC3)cc21 [Compound I-25, 6-[4-(4-fluoro-2-methylsulfonyl-phenyl)piperazin-1-yl]-1-methyl-5H-pyrazolo[4 3-c]pyridin-4-one] | 44 | 45.1
21 | COCCOc1cc(F)c(N2CCN(c3cc4c(cnn4C)c(=O)[nH]3)CC2)c(F)c1 [Compound I-53, 6-[4-[2 6-difluoro-4-(2-methoxyethoxy)phenyl]piperazin-1-yl]-1-methyl-5H-pyrazolo[4 3-c]pyridin-4-one] | 26 | 19.3
22 | Cn1ncc2c(=O)[nH]c(N3CCN(C4CCS(=O)(=O)C4)CC3)nc21 (centres unmarked) [Compound I-36, 6-[4-(1 1-dioxothiolan-3-yl)piperazin-1-yl]-1-methyl-5H-pyrazolo[3 4-d]pyrimidin-4-one] | 1930 | 1600
